Source: ChEMBL document CHEMBL1149774, “Synthesis of N-(5,7-diamino-3-phenyl-quinoxalin-2-yl)-3,4,5-substituted anilines and N-[4[(5,7-diamino-3-phenylquinoxalin-2-yl)amino]benzoyl]-l-glutamic acid diethyl ester: evaluation of in vitro anti-cancer and anti-folate activities” (Eur J Med Chem, 2008)

Legend:
Format in all cases: functional
HOP-62 = assay: Growth inhibition of human HOP62 cells after 48 hrs by SRB staining method; conditions: HOP-62, 48 h
NCI-H226 = assay: Growth inhibition of human NCI-H226 cells after 48 hrs by SRB staining method; conditions: NCI-H226, 48 h
NCI-H23 = assay: Growth inhibition of human NCI-H23 cells after 48 hrs by SRB staining method; conditions: NCI-H23, 48 h
NCI-H322M = assay: Growth inhibition of human NCI-H322M cells after 48 hrs by SRB staining method
NCI-H460 = assay: Growth inhibition of human NCI-H460 cells after 48 hrs by SRB staining method; conditions: NCI-H460, 48 h
NCI-H522 = assay: Growth inhibition of human NCI-H522 cells after 48 hrs by SRB staining method; conditions: NCI-H522, 48 h
HCT-116 = assay: Growth inhibition of human HCT116 cells after 48 hrs by SRB staining method; conditions: HCT-116, 48 h
HCT-15 = assay: Growth inhibition of human HCT15 cells after 48 hrs by SRB staining method; conditions: HCT-15, 48 h
KM12 = assay: Growth inhibition of human KM12 cells after 48 hrs by SRB staining method; conditions: KM12, 48 h
SF-295 = assay: Growth inhibition of human SF295 cells after 48 hrs by SRB staining method; conditions: SF-295, 48 h
U-251 = assay: Growth inhibition of human U251 cells after 48 hrs by SRB staining method; conditions: U-251, 48 h
LOX IMVI = assay: Growth inhibition of human LOX IMVI cells after 48 hrs by SRB staining method
M14 = assay: Growth inhibition of human M14 cells after 48 hrs by SRB staining method; conditions: M14, 48 h
SK-MEL-5 = assay: Growth inhibition of human SK-MEL-5 cells after 48 hrs by SRB staining method; conditions: SK-MEL-5, 48 h
UACC-257 = assay: Growth inhibition of human UACC257 cells after 48 hrs by SRB staining method; conditions: UACC-257, 48 h
UACC-62 = assay: Growth inhibition of human UACC62 cells after 48 hrs by SRB staining method; conditions: UACC-62, 48 h
OVCAR-3 = assay: Growth inhibition of human OVCAR-3 cells after 48 hrs by SRB staining method; conditions: OVCAR-3, 48 h
OVCAR-4 = assay: Growth inhibition of human OVCAR4 cells after 48 hrs by SRB staining method; conditions: OVCAR-4, 48 h
OVCAR-5 = assay: Growth inhibition of human OVCAR5 cells after 48 hrs by SRB staining method; conditions: OVCAR-5, 48 h
OVCAR-8 = assay: Growth inhibition of human OVCAR8 cells after 48 hrs by SRB staining method; conditions: OVCAR-8, 48 h
SK-OV-3 = assay: Growth inhibition of human SKOV3 cells after 48 hrs by SRB staining method; conditions: SK-OV-3, 48 h
786-0 = assay: Growth inhibition of human 786-0 cells after 48 hrs by SRB staining method; conditions: 786-0, 48 h
RXF 393 = assay: Growth inhibition of human RXF393 cells after 48 hrs by SRB staining method; conditions: RXF 393, 48 h
SN12C = assay: Growth inhibition of human SN12C cells after 48 hrs by SRB staining method
TK-10 = assay: Growth inhibition of human TK10 cells after 48 hrs by SRB staining method; conditions: TK-10, 48 h
DU-145 = assay: Growth inhibition of human DU145 cells after 48 hrs by SRB staining method; conditions: DU-145, 48 h
MCF7 = assay: Growth inhibition of human MCF7 cells after 48 hrs by SRB staining method; conditions: MCF7, 48 h
NCI/ADR-RES = assay: Growth inhibition of human NCI/ADR-RES cells after 48 hrs by SRB staining method
MDA-MB-435 = assay: Growth inhibition of human MDA-MB-435 cells after 48 hrs by SRB staining method; conditions: MDA-MB-435, 48 h
SF-268 = assay: Growth inhibition of human SF268 cells after 48 hrs by SRB staining method; conditions: SF-268, 48 h
HL-60 = assay: Growth inhibition of human HL60 cells after 48 hrs by SRB staining method; conditions: HL-60, 48 h
SR = assay: Growth inhibition of human SR cells after 48 hrs by SRB staining method
EKVX = assay: Growth inhibition of human EKVX cells after 48 hrs by SRB staining method
[1] = read-out: pLC50 (the source's name) (converted)

COc1cc(Nc2nc3cc(N)cc(N)c3nc2-c2ccccc2)cc(OC)c1
GI50 (HOP-62): 19.5 µM | LC50 (HOP-62): > 100 µM | TGI (HOP-62; read-out: pTGI (converted)): 53.7 µM | GI50 (NCI-H226): 2.88 µM | LC50 (NCI-H226): > 100 µM | TGI (NCI-H226; read-out: pTGI (converted)): 33.1 µM | GI50 (NCI-H23): 27.5 µM | LC50 (NCI-H23): > 100 µM | TGI (NCI-H23; read-out: pTGI (converted)): > 100 µM | GI50 (NCI-H322M): 13.8 µM | LC50 (NCI-H322M): > 100 µM | TGI (NCI-H322M; read-out: pTGI (converted)): 58.9 µM | GI50 (NCI-H460): 7.94 µM | LC50 (concentration killing 50% of cells) (NCI-H460): > 100 µM | TGI (NCI-H460; read-out: pTGI (converted)): 52.5 µM | GI50 (NCI-H522): 9.55 µM | LC50 (NCI-H522): 85.1 µM | TGI (NCI-H522; read-out: pTGI (converted)): 28.8 µM | GI50 (HCT-116): 17 µM | LC50 (HCT-116): > 100 µM | TGI (HCT-116; read-out: pTGI (converted)): 53.7 µM | GI50 (HCT-15): 20 µM | LC50 (HCT-15): > 100 µM | TGI (HCT-15; read-out: pTGI (converted)): > 100 µM | GI50 (KM12): 13.2 µM | LC50 (KM12): 72.4 µM | TGI (KM12; read-out: pTGI (converted)): 30.9 µM | GI50 (SF-295): 12.6 µM | LC50 (SF-295): > 100 µM | TGI (SF-295; read-out: pTGI (converted)): 58.9 µM | GI50 (U-251): 22.9 µM | LC50 (50% lethal concentration) (U-251): > 100 µM | TGI (U-251; read-out: pTGI (converted)): > 100 µM | GI50 (LOX IMVI): 15.1 µM | LC50 (LOX IMVI): > 100 µM | TGI (LOX IMVI; read-out: pTGI (converted)): 50.1 µM | GI50 (M14): 14.1 µM | LC50 (M14): 85.1 µM | TGI (M14; read-out: pTGI (converted)): 34.7 µM | GI50 (SK-MEL-5): 10.5 µM | LC50 (SK-MEL-5): 87.1 µM | TGI (SK-MEL-5; read-out: pTGI (converted)): 30.2 µM | GI50 (UACC-257): 15.8 µM | LC50 (UACC-257): > 100 µM | TGI (UACC-257; read-out: pTGI (converted)): 47.9 µM | GI50 (UACC-62): 7.41 µM | LC50 (UACC-62): 61.7 µM | TGI (UACC-62; read-out: pTGI (converted)): 23.4 µM | GI50 (OVCAR-3): 3.89 µM | LC50 (OVCAR-3): 100 µM | TGI (OVCAR-3; read-out: pTGI (converted)): 20 µM | GI50 (OVCAR-4): 17.8 µM | LC50 (OVCAR-4): > 100 µM | TGI (OVCAR-4; read-out: pTGI (converted)): > 100 µM | GI50 (OVCAR-5): 26.3 µM | LC50 (OVCAR-5): > 100 µM | TGI (OVCAR-5; read-out: pTGI (converted)): > 100 µM | GI50 (OVCAR-8): 6.17 µM | CC50 (OVCAR-8; [1]): > 100 µM | TGI (OVCAR-8; read-out: pTGI (converted)): 46.8 µM | GI50 (SK-OV-3): 6.61 µM | CC50 (SK-OV-3; [1]): > 100 µM | TGI (SK-OV-3; read-out: pTGI (converted)): 39.8 µM | GI50 (786-0): 17.8 µM | CC50 (786-0; [1]): > 100 µM | TGI (786-0; read-out: pTGI (converted)): 51.3 µM | GI50 (RXF 393): 3.16 µM | CC50 (RXF 393; [1]): 95.5 µM | TGI (RXF 393; read-out: pTGI (converted)): 18.6 µM | GI50 (SN12C): 8.71 µM | CC50 (SN12C; [1]): > 100 µM | TGI (SN12C; read-out: pTGI (converted)): > 100 µM | GI50 (TK-10): 13.2 µM | CC50 (TK-10; [1]): > 100 µM | TGI (TK-10; read-out: pTGI (converted)): 42.7 µM | GI50 (DU-145): 22.9 µM | CC50 (DU-145; [1]): > 100 µM | TGI (DU-145; read-out: pTGI (converted)): > 100 µM | GI50 (MCF7): 7.94 µM | CC50 (MCF7; [1]): 85.1 µM | TGI (MCF7; read-out: pTGI (converted)): 26.9 µM | GI50 (NCI/ADR-RES): 12.9 µM | CC50 (NCI/ADR-RES; [1]): > 100 µM | TGI (NCI/ADR-RES; read-out: pTGI (converted)): 74.1 µM | GI50 (MDA-MB-435): 11.5 µM | CC50 (MDA-MB-435; [1]): 49 µM | TGI (MDA-MB-435; read-out: pTGI (converted)): 24 µM | GI50 (SF-268): 5.62 µM | CC50 (SF-268; [1]): > 100 µM | TGI (SF-268; read-out: pTGI (converted)): 56.2 µM | GI50 (HL-60): 10 µM | CC50 (HL-60; [1]): > 100 µM | TGI (HL-60; read-out: pTGI (converted)): > 100 µM | GI50 (SR): 5.62 µM | CC50 (SR; [1]): > 100 µM | TGI (SR; read-out: pTGI (converted)): > 100 µM | GI50 (EKVX): 13.2 µM | CC50 (EKVX; [1]): > 100 µM | TGI (EKVX; read-out: pTGI (converted)): 64.6 µM
